Reference: patent US6362166B1, “Antipicornaviral compounds and methods for their use and preparation” (Agouron Pharmaceuticals, Inc., priority 1996, dated 2002)
Read-outs that look alike come from different tables or passages of the source.

Experiments:
[1] = molecular target: T1, Recombinant Rhinovirus 3C protease (RVP) serotype 16 (Human rhinovirus 16, UniProt Q82122); assay: Inhibition of Rhinovirus Protease (fluorescence resonance energy transfer assay), serotype 16; type: biochemical, human rhinovirus (HRV); conditions: RVP serotype 16, progress curves in enzyme start experiments; for kinact/KI: pH 7.6, read-out: kobs/I
T1 construct: Recombinant Rhinovirus 3C proteases from serotypes 14, 16, 2 or 89; made in house
Method: (§1) Stock solution (50 mM, in DMSO) of various compounds were prepared; dilutions were in the same solvent. Recombinant Rhinovirus 3C proteases from serotypes 14, 16, 2 or 89 were prepared by the following standard chromatographic procedures: (1) ion exchange using Q Sepharose Fast Flow from Pharmacia; (2) affinity chromatography using Affi-Gel Blue from Biorad; and (3) sizing using Sephadex G-100 from Pharmacia. Assays contained 2% DMSO, 50 mM tris pH 7.6, 1 mM EDTA, a compound at the indicated concentrations, approximately 1 μM substrate, and 50-100 nM protease. […] The kobs/I values were obtained from reactions initiated by addition of enzyme rather than substrate. RVP activity is measured in the fluorescence resonance energy transfer assay. The substrate was (N-terminal) DABCYL-([…]Gyl)-EDANS. In the uncleaved peptide, the EDANS fluorescence was quenched by the proximal DABCYL moeity. When the peptide was cleaved, the quenching was relieved, and activity was measured as an increase in fluorescence signal.
(§2) In the above table, all data is RVP serotype-14 unless otherwise noted in parentheses. All strains of human rhinovirus (HRV) were purchased from American Type Culture Collection (ATCC), except for serotype 14, which was produced from the infectious cDNA clone constructed and supplied to us by Dr. Roland Rueckert at the Institute for Molecular Virology, University of Wisconsin, Madison, Wisc. […] The data in the column designated kobs/I was measured from progress curves in enzyme start experiments.

HI-HeLa cells = assay: Cytotoxicity in mock-infected HI-HeLa cells (antirhinoviral assay, XTT); type: cell-based
[2] = molecular target: T2, Recombinant Rhinovirus 3C protease (RVP) serotype 2 (Human rhinovirus 2, UniProt P04936); assay: Inhibition of Rhinovirus Protease (fluorescence resonance energy transfer assay), serotype 2; type: biochemical, human rhinovirus (HRV); conditions: for kobs/I: progress curves in enzyme start experiments; for kinact/KI: pH 7.6, progress curves in enzyme start experiments, read-out: kobs/I
T2 construct: Recombinant Rhinovirus 3C proteases from serotypes 14, 16, 2 or 89; made in house
Method: as §1, §2

[3] = molecular target: T3, Recombinant Rhinovirus 3C protease (RVP) serotype-14 (Human rhinovirus 14, UniProt P03303); assay: Inhibition of Rhinovirus Protease (fluorescence resonance energy transfer assay), serotype 14; type: biochemical, human rhinovirus (HRV); conditions: for kobs/I: progress curves in enzyme start experiments; for kinact/KI: pH 7.6, read-out: kobs/I
T3 construct: Recombinant Rhinovirus 3C proteases from serotypes 14, 16, 2 or 89; made in house

HRV-14 = assay: Antirhinoviral HI-HeLa Cell Culture Assay (Cell Protection Assay, XTT dye reduction); type: cell-based, human rhinovirus (HRV) serotype-14; conditions: HI-HeLa cells infected with HRV-14, m.o.i. 0.13, two days, XTT, read-out: EC50
Outline: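 HI-HeLa cells infected with HRV-14 at m.o.i. 0.13 or mock-infected, then incubated with compounds for two days. Cell protection read by XTT/PMS formazan at 450/650 nm; therapeutic index = CC50/EC50.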

[4] = Cytotoxicity in mock-infected HI-HeLa cells (antirhinoviral assay, XTT); type: cell-based; conditions: human; mock-infected HI-HeLa cells; two days; XTT; read-out: CC50
[5] = mock-infected HI-HeLa cells, two days, XTT, read-out: CC50
[6] = RVP serotype-14, 10 minute preincubation, substrate start, read-out: INHIB (Ki)

T3 sequence (P03303 1538-1719): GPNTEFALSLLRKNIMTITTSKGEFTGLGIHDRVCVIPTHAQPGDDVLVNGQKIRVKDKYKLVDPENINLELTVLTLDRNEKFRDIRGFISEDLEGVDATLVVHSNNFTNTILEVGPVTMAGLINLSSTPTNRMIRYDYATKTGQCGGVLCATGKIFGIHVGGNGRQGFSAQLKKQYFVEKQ
T1 sequence (Q82122 1511-1693): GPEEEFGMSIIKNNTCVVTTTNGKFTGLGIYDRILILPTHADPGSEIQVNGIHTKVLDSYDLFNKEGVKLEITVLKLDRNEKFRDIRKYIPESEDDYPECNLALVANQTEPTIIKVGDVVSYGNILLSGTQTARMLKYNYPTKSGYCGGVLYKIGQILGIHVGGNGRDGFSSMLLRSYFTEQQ
T2 sequence (P04936 1508-1690): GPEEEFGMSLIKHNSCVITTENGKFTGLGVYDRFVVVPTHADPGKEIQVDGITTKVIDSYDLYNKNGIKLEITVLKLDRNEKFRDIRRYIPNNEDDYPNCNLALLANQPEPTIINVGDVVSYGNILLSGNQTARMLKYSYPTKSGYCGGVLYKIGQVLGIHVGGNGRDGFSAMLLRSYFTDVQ

Row | Compound | kobs/I [1] | CC50 (HI-HeLa cells) [µM] | kobs/I [2] | kobs/I ([3]; RVP serotype-14) | EC50 (HRV-14) [µM] | CC50 (HI-HeLa cells; [5]) [µM] | Ki [3, 6] [µM] | kinact/KI [1] [M⁻¹ s⁻¹] | CC50 at 2 days [4] [µM] | kinact/KI [2] [M⁻¹ s⁻¹] | Ki [3] [µM] | kinact/KI [3] [M⁻¹ s⁻¹] | EC50 (HRV-14; Rhinovirus B, HRV14, 48 h) [µM]
1 | CCC[C@H](NC(=O)[C@H](CC(C)C)NC(=O)OCc1ccccc1)C(=O)N[C@H](/C=C/C(=O)OCC)CCC(N)=O [Compound 137] | 1,157 M-1 sec-1 | > 320 | 643 M⁻¹ s⁻¹ | 2,344 M-1 sec-1 | 224 | – | – | – | – | – | – | – | –
2 | CC(C)C[C@H](NC(=O)OCc1ccccc1)C(=O)N[C@@H](Cc1ccccc1)C(=O)N[C@H](/C=C/C(=O)N1CCCC1=O)CCC(N)=O [Compound 61] | 25,000 M-1 sec-1 | 56 | 14,000 M-1 sec-1 | 125,940 M-1 sec-1 | 0.89 | – | – | – | – | – | – | – | –
3 | CCOC(=O)/C=C/[C@H](CCC(N)=O)NC(=O)[C@H](Cc1ccc(F)cc1)NC(=O)[C@H](CC(C)C)NC(=O)OCc1ccccc1 [Compound 35, Ethyl-3-[CBZ-L-Leu-L-(4-F-Phe)-L-Gln]-E-Propenoate] | 9,177 M-1 sec-1 | – | 2,357 M-1 sec-1 | 46,388 M-1 sec-1 | 1.8 | > 320 | 16.5 | – | – | – | – | – | –
4 | CCOC(=O)/C=C/[C@H](CCC(N)=O)NC(=O)[C@H](Cc1ccc(CCO)cc1)NC(=O)[C@H](CC(C)C)NC(=O)OCc1ccccc1 [Compound 139] | 1,259 M-1 sec-1 | > 320 | 691 M⁻¹ s⁻¹ | 43,140 M-1 sec-1 | 3.5 | – | – | – | – | – | – | – | –
5 | CCOC(=O)/C=C/[C@H](CCC(N)=O)NC(=O)[C@H](Cc1ccc(OC)cc1)NC(=O)[C@H](CC(C)C)NC(=O)OCc1ccccc1 [Compound 103] | 3,354 M-1 sec-1 | > 320 | 1,106 M-1 sec-1 | 29,200 M-1 sec-1 | 1.7 | – | – | – | – | – | – | – | –
6 | CCOC(=O)/C=C/[C@H](CCC(N)=O)NC(=O)[C@H](Cc1ccccc1)NC(=O)[C@H](Cc1ccccc1)NC(=O)OCc1ccccc1 [Compound 157] | – | – | – | – | – | – | – | 30800 | > 320 | 9700 | 6 | 162000 | 0.56
7 | CCOC(=O)/C=C/[C@H](CCC(N)=O)NC(=O)[C@H](Cc1ccccc1)NC(=O)[C@H](CSCc1ccccc1)NC(=O)OCc1ccccc1 [Compound 165] | 20,200 M-1 sec-1 | > 100 | 5,600 M-1 sec-1 | 97,000 M-1 sec-1 | 0.2 | – | – | – | – | – | – | – | –
8 | CCOC(=O)/C=C/[C@H](CCC(N)=O)NC(=O)[C@H](Cc1ccccc1)NC(=O)[C@H](CSc1ccccc1)NC(=O)OCc1ccccc1 [Compound 153] | – | – | – | – | – | – | – | 30600 | > 320 | 13400 | 1.4 | 141000 | 0.12
9 | CC(C)C[C@H](NC(=O)OCc1ccccc1)C(=O)N[C@@H](Cc1ccccc1)C(=O)N[C@H](/C=C/C(=O)N1CCOC1=O)CCC(N)=O [Compound 62] | 300,000 M-1 sec-1 | > 100 | 600,000 M-1 sec-1 | 600,000 M-1 sec-1 | 1.6 | – | – | – | – | – | – | – | –
10 | CCOC(=O)/C=C/[C@H](CCC(N)=O)NC(=O)[C@H](Cc1ccc(CO)cc1)NC(=O)[C@H](CC(C)C)NC(=O)OCc1ccccc1 [Compound 114] | – | – | – | – | – | – | – | – | > 320 | 1970 | ≥ 1 | 82300 | 0.55
11 | CCOC(=O)/C=C/[C@H](CCC(N)=O)NC(=O)[C@H](Cc1ccccc1)NC(=O)[C@H](CC(C)C)NC(=O)SC(C)C [Compound 170] | 30,000 M-1 sec-1 | > 100 | 8,400 M-1 sec-1 | 85,300 M-1 sec-1 | 0.2 | – | – | – | – | – | – | – | –
12 | CCOC(=O)C=CC(CCC(N)=O)NC(=O)C(Cc1ccccc1)NC(=O)C(NC(=O)OCc1ccccc1)C(C)CC (stereo not drawn) [Compound 172] | 6,000 M-1 sec-1 | > 100 | 2,000 M-1 sec-1 | 31,700 M-1 sec-1 | 0.79 | – | – | – | – | – | – | – | –
13 | CCOC(=O)/C=C/[C@H](CCC(N)=O)NC(=O)[C@H](Cc1ccccc1)NC(=O)[C@H](CO)NC(=O)OCc1ccccc1 [Compound 149] | 7,700 M-1 sec-1 | > 320 | 2,840 M-1 sec-1 | 39,940 M-1 sec-1 | 1.78 | – | – | – | – | – | – | – | –
14 | CCOC(=O)/C(C)=C/[C@H](CCC(N)=O)NC(=O)[C@H](Cc1ccccc1)NC(=O)[C@H](CC(C)C)NC(=O)SC(C)C [Compound 171] | 3,250 M-1 sec-1 | > 100 | 830 M⁻¹ s⁻¹ | 21,200 M-1 sec-1 | 0.71 | – | – | – | – | – | – | – | –
15 | CCOC(=O)/C=C/[C@H](CCC(N)=O)NC(=O)[C@H](Cc1ccccc1)NC(=O)[C@H](Cc1ccccc1)NC(=O)SCc1ccccc1 [Compound 161] | 126,000 M-1 sec-1 | > 100 | 200,000 M-1 sec-1 | 1,086,000 M-1 sec-1 | 0.17 | – | – | – | – | – | – | – | –
16 | CCOC(=O)/C=C/[C@H](CCC(N)=O)NC(=O)[C@H](Cc1ccccc1)NC(=O)[C@H](CSc1ccccc1)NC(=O)SC1CCCC1 [Compound 173, Ethyl-3-[Cyclopentylthiocarbonyl-L-(S-Ph-Cys)-L-Phe-L-Gln]-E-Propenoate] | 185,000 M-1 sec-1 | > 100 | 113,000 M-1 sec-1 | 1,000,000 M-1 sec-1 | 0.08 | – | – | – | – | – | – | – | –
17 | CCOC(=O)/C=C/[C@H](CCC(N)=O)NC(=O)[C@H](Cc1ccccc1)NC(=O)[C@H](CCc1ccccc1)NC(=O)SCc1ccccc1 [Compound 162] | 80,000 M-1 sec-1 | > 100 | 150,000 M-1 sec-1 | 800,000 M-1 sec-1 | 0.32 | – | – | – | – | – | – | – | –
18 | CCOC(=O)/C=C/[C@H](CCC(N)=O)NC(=O)[C@H](Cc1ccccc1)NC(=O)[C@@H](NC(=O)OCc1ccccc1)C(C)C [Compound 146] | 16,900 M-1 sec-1 | > 320 | 7,790 M-1 sec-1 | 62,500 M-1 sec-1 | 0.38 | – | – | – | – | – | – | – | –
19 | CCOC(=O)/C=C/[C@H](CCC(N)=O)NC(=O)[C@H](Cc1ccccc1)NC(=O)[C@H](CC(=O)N(C)C)NC(=O)OCc1ccccc1 [Compound 158] | 6,400 M-1 sec-1 | > 320 | 2,200 M-1 sec-1 | 22,600 M-1 sec-1 | 5.9 | – | 17 | – | – | – | – | – | –
20 | CCOC(=O)/C=C/[C@H](CCC(N)=O)NC(=O)[C@H](CC1CCCCC1)NC(=O)[C@H](CC(C)C)NC(=O)OCc1ccccc1 [Compound 135] | 3,465 M-1 sec-1 | – | 671 M⁻¹ s⁻¹ | 16,270 M-1 sec-1 | 1.9 | > 320 | – | – | – | – | – | – | –
21 | CCOC(=O)/C=C/[C@H](CCC(N)=O)NC(=O)[C@H](Cc1ccccc1)NC(=O)[C@H](C[S+]([O-])Cc1ccccc1)NC(=O)OCc1ccccc1 (stereo partly drawn) [Compound 166] | 7,700 M-1 sec-1 | > 100 | 3,500 M-1 sec-1 | 40,900 M-1 sec-1 | 5.6 | – | – | – | – | – | – | – | –
22 | CCOC(=O)/C=C/[C@H](CCC(N)=O)NC(=O)[C@H](Cc1ccccc1)NC(=O)[C@@H](NC(=O)SCC)C(C)(C)C [Compound 167, Ethyl-3-[Ethylthiocarbonyl-L-α-(t-Butyl-Gly)-L-Phe-L-Gln]-E-Propenoate] | 42,100 M-1 sec-1 | > 100 | 10,700 M-1 sec-1 | 165,400 M-1 sec-1 | 0.083 | – | – | – | – | – | – | – | –
